33 compounds from patent publication US9169209B2, “Compounds and compositions for the inhibition of NAMPT” (FORMA TM, LLC, priority 2011, dated 2015) can be followed below.

Like-named read-outs stand apart in the source and are kept apart here.

Test [1] addresses NAMPT (Homo sapiens (Human), UniProt P43490). Put plainly: Biochemical Inhibition Assay (NAMPT enzymatic reaction, NMN quantified by mass spectrometry). As to conditions: recombinant His-tagged NAMPT, 33 nM; 1 μM NAM; read-out: Biochem IC50. Put shortly:
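His-tagged human NAMPT from E. coli was preincubated 15 min at RT with compound in Hepes pH 7.5/MgCl2 buffer. Reaction ran 30 min at RT with 1 μM NAM, 100 μM PRPP and 2.5 mM ATP, then was quenched with formic acid. NMN was measured by RapidFire MS, normalized to L-cystathionine, and IC50 derived from % inhibition.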

Test [2] relates to A2780 cells. Put plainly: In-Vitro Cell Proliferation Assay (SRB, 72 hours). It is filed as cell-based. As to conditions: Homo sapiens, A2780, 72 h, read-out: A2780 IC50. Put shortly: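 Plated cells exposed to serially diluted compound (0.1% DMSO final) for 72 h at 37 °C, 5% CO2. Viability by SRB staining after TCA fixation, absorbance 570 nm, media-only background subtracted; % inhibition relative to DMSO-treated cells, interpolated between bracketing concentrations.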

Setting [3] is: A2780 cells, 72 hours, sulforhodamine B.

NAMPT, sequence (P43490 whole entry): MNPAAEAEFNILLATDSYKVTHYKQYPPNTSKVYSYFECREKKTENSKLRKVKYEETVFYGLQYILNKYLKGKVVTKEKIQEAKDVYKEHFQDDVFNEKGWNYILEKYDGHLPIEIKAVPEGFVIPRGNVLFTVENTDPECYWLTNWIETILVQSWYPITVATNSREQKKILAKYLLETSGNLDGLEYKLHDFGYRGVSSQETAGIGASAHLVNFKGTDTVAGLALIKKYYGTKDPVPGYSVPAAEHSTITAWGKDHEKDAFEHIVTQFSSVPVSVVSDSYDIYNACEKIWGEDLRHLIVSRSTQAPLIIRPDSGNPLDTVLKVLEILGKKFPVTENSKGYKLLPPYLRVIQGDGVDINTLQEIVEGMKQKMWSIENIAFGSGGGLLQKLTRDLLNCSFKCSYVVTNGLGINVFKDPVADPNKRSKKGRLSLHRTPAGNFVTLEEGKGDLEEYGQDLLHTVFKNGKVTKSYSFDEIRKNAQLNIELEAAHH

Consider `CC(C)NC(=O)c1cccc(S(=O)(=O)c2ccc(NC(=O)/C=C/c3cccnc3)cc2)c1` [N-(propan-2-yl)-3-({4-[(2E)-3-(pyridin-3-yl)prop-2-enamido]benzene}sulfonyl)benzamide], for which the IC50 is 17.6 nM in test [1] and 100 to 1000 nM in test [2] (setting [3]).
For the compound `O=C(/C=C/c1cccnc1)Nc1ccc(S(=O)(=O)c2cccc3ccccc23)cc1` [(2E)-N-[4-(naphthalene-1-sulfonyl)phenyl]-3-(pyridin-3-yl)prop-2-enamide], the IC50 in test [1] was 4.2 nM; in test [2] (setting [3]), 18.1 nM.
For `O=C(Nc1ccc(S(=O)(=O)c2ccccc2)cc1)/C(F)=C/c1cccnc1` [(2Z)-N-[4-(benzenesulfonyl)phenyl]-2-fluoro-3-(pyridin-3-yl)prop-2-enamide], in that order: 7 nM and 347 nM.
For `O=C(/C=C/c1cccnc1)Nc1ccc(S(=O)(=O)c2cccc(N3CCOCC3)c2)cc1` [(2E)-N-(4-{[3-(morpholin-4-yl)benzene]sulfonyl}phenyl)-3-(pyridin-3-yl)prop-2-enamide] the same measures were 9.2 nM and 30.3 nM.
Regarding `O=C(/C=C/c1cccnc1)Nc1ccc(S(=O)(=O)c2cccc(OC(F)(F)F)c2)cc1` [(2E)-3-(pyridin-3-yl)-N-(4-{[3-(trifluoromethoxy)benzene]sulfonyl}phenyl)prop-2-enamide], the IC50 in test [1] stood at 61.5 nM; in test [2] (setting [3]), 47.7 nM.
For `O=C(/C=C/c1cccnc1)Nc1ccc(S(=O)(=O)c2cccc(-n3cccn3)c2)cc1` [(2E)-N-(4-{[3-(1H-pyrazol-1-yl)benzene]sulfonyl}phenyl)-3-(pyridin-3-yl)prop-2-enamide] the same measures were 4.8 nM and 88 nM.
For the compound `O=C(/C=C/c1cccnc1)Nc1ccc(S(=O)(=O)c2cccc3c2OCO3)cc1` [(2E)-N-[4-(2H-1,3-benzodioxole-4-sulfonyl)phenyl]-3-(pyridin-3-yl)prop-2-enamide], the figures for the IC50 in test [1] and in test [2] (setting [3]) were 16.1 nM and 75.1 nM, respectively.
Take `Cc1cc(C)n(-c2cccc(S(=O)(=O)c3ccc(NC(=O)/C=C/c4cccnc4)cc3)c2)n1` [(2E)-N-(4-{[3-(3,5-dimethyl-1H-pyrazol-1-yl)benzene]sulfonyl}phenyl)-3-(pyridin-3-yl)prop-2-enamide]: the IC50 in test [1] turned out to be 9.1 nM; in test [2] (setting [3]), 31.9 nM.
For the compound `CCNC(=O)c1cccc(S(=O)(=O)c2ccc(NC(=O)/C=C/c3cccnc3)cc2)c1` [N-ethyl-3-({4-[(2E)-3-(pyridin-3-yl)prop-2-enamido]benzene}sulfonyl)benzamide], the IC50 in test [1] was 7.3 nM; in test [2] (setting [3]), 100 to 1000 nM.
For `O=C(/C=C/c1cccnc1)Nc1ccc(S(=O)(=O)c2cc(F)cc(Cl)c2)cc1` [(2E)-N-{4-[(3-chloro-5-fluorobenzene)sulfonyl]phenyl}-3-(pyridin-3-yl)prop-2-enamide] the same measures were 124 nM and 179 nM.
For `O=C(/C=C/c1cccnc1)Nc1ccc(S(=O)(=O)c2ccc(F)cc2)cc1` [(2E)-N-{4-[(4-fluorobenzene)sulfonyl]phenyl}-3-(pyridin-3-yl)prop-2-enamide] the same measures were 2 nM and 158 nM.
For the compound `COc1ccc(C)cc1S(=O)(=O)c1ccc(NC(=O)/C=C/c2cccnc2)cc1` [(2E)-N-{4-[(2-methoxy-5-methylbenzene)sulfonyl]phenyl}-3-(pyridin-3-yl)prop-2-enamide], the IC50 in test [1] was 1.8 nM; in test [2] (setting [3]), 7.3 nM.
Consider `O=C(/C=C/c1cccnc1)Nc1ccc(S(=O)(=O)c2cccc(C(F)(F)F)c2)cc1` [(2E)-3-(pyridin-3-yl)-N-(4-{[3-(trifluoromethyl)benzene]sulfonyl}phenyl)prop-2-enamide], for which the 50% inhibitory concentration (IC50) in test [1] was 31.9 nM; in test [2] (setting [3]) it was 107 nM.
For `NS(=O)(=O)c1cccc(S(=O)(=O)c2ccc(NC(=O)/C=C/c3cccnc3)cc2)c1` [(2E)-3-(pyridin-3-yl)-N-{4-[(3-sulfamoylbenzene)sulfonyl]phenyl}prop-2-enamide] the same measures were 9.9 nM and 100 to 1000 nM.
Take `O=C(/C=C/c1cccnc1)Nc1ccc(S(=O)(=O)Nc2ccccc2OC(F)(F)F)cc1` [(2E)-3-(pyridin-3-yl)-N-(4-{[2-(trifluoromethoxy)phenyl]sulfamoyl}phenyl)prop-2-enamide]: the results for the IC50 in test [1] and in test [2] (setting [3]) were 375 nM and 1270 nM, respectively.
For `O=C(/C=C/c1cccnc1)Nc1ccc(S(=O)(=O)c2cccc3cc[nH]c23)cc1` [(2E)-N-[4-(1H-indole-7-sulfonyl)phenyl]-3-(pyridin-3-yl)prop-2-enamide], the figures for the concentration for half-maximal inhibition (IC50) in test [1] and in test [2] (setting [3]) were 8.4 nM and 13.3 nM, respectively.
For `Cc1cncc(S(=O)(=O)c2ccc(NC(=O)/C=C/c3cccnc3)cc2)c1` [(2E)-N-[4-(5-methylpyridine-3-sulfonyl)phenyl]-3-(pyridin-3-yl)prop-2-enamide] the same measures were 18.1 nM and 74.4 nM.
In the case of `O=C(/C=C/c1cccnc1)Nc1ccc(S(=O)(=O)c2cccc3[nH]ccc23)cc1` [(2E)-N-[4-(1H-indole-4-sulfonyl)phenyl]-3-(pyridin-3-yl)prop-2-enamide], the values for the concentration for half-maximal inhibition (IC50) in test [1] and in test [2] (setting [3]) were 2.3 nM and 40.1 nM, respectively.
For `O=C(/C=C/c1cccnc1)Nc1ccc(S(=O)(=O)c2cccc(C(=O)NC3CCCC3)c2)cc1` [N-cyclopentyl-3-({4-[(2E)-3-(pyridin-3-yl)prop-2-enamido]benzene}sulfonyl)benzamide], in that order: 16.1 nM and 100 to 1000 nM.
Turning to `COc1cc(S(=O)(=O)c2ccc(NC(=O)/C=C/c3cccnc3)cc2)ccc1Cl` [(2E)-N-{4-[(4-chloro-3-methoxybenzene)sulfonyl]phenyl}-3-(pyridin-3-yl)prop-2-enamide], the IC50 in test [1] is 26.3 nM; in test [2] (setting [3]), 72 nM.
For `COc1ccc(S(=O)(=O)c2ccc(NC(=O)/C=C/c3cccnc3)cc2)cc1F` [(2E)-N-{4-[(3-fluoro-4-methoxybenzene)sulfonyl]phenyl}-3-(pyridin-3-yl)prop-2-enamide] the same measures were 11.5 nM and 103 nM.
In the case of `COc1cncc(S(=O)(=O)c2ccc(NC(=O)/C=C/c3cccnc3)cc2)c1` [(2E)-N-[4-(5-methoxypyridine-3-sulfonyl)phenyl]-3-(pyridin-3-yl)prop-2-enamide], the IC50 amounted to 15.6 nM in test [1] and 86.3 nM in test [2] (setting [3]).
For the compound `Cc1ccc(S(=O)(=O)c2ccc(NC(=O)/C=C/c3cccnc3)cc2)cc1Cl` [(2E)-N-{4-[(3-chloro-4-methylbenzene)sulfonyl]phenyl}-3-(pyridin-3-yl)prop-2-enamide], the IC50 is 8.6 nM in test [1] and 199 nM in test [2] (setting [3]).
For `Cc1cc(S(=O)(=O)c2ccc(NC(=O)/C=C/c3cccnc3)cc2)ccc1F` [(2E)-N-{4-[(4-fluoro-3-methylbenzene)sulfonyl]phenyl}-3-(pyridin-3-yl)prop-2-enamide], in that order: 21.9 nM and 100 to 1000 nM.
For `CCCOc1ccc(S(=O)(=O)c2ccc(NC(=O)/C=C/c3cccnc3)cc2)cc1F` [(2E)-N-{4-[(3-fluoro-4-propoxybenzene)sulfonyl]phenyl}-3-(pyridin-3-yl)prop-2-enamide] the same measures were 40.9 nM and 100 to 1000 nM.
For `O=C(/C=C/c1cccnc1)Nc1ccc(S(=O)(=O)c2ccc(OC(F)(F)F)cc2)cc1` [(2E)-3-(pyridin-3-yl)-N-(4-{[4-(trifluoromethoxy)benzene]sulfonyl}phenyl)prop-2-enamide] the same measures were 167 nM and 100 to 1000 nM.
For `O=C(/C=C/c1cccnc1)Nc1ccc(S(=O)(=O)c2cccc(Cl)c2)cc1` [(2E)-N-{4-[(3-chlorobenzene)sulfonyl]phenyl}-3-(pyridin-3-yl)prop-2-enamide], the IC50 came out at 122 nM in test [1] and 182 nM in test [2].
Turning to `O=C(/C=C/c1cccnc1)Nc1ccc(S(=O)(=O)c2ccc(-n3cccn3)cc2)cc1` [(2E)-N-(4-{[4-(1H-pyrazol-1-yl)benzene]sulfonyl}phenyl)-3-(pyridin-3-yl)prop-2-enamide], the values for the 50% inhibitory concentration (IC50) in test [1] and in test [2] (setting [3]) were 17.4 nM and 71.7 nM, respectively.
For `O=C(/C=C/c1cccnc1)Nc1ccc(S(=O)(=O)c2cccc(F)c2)cc1` [(2E)-N-{4-[(3-fluorobenzene)sulfonyl]phenyl}-3-(pyridin-3-yl)prop-2-enamide], the values for the IC50 in test [1] and in test [2] (setting [3]) were 66.4 nM and 103 nM, respectively.
For `CS(=O)(=O)c1ccc(S(=O)(=O)c2ccc(NC(=O)/C=C/c3cccnc3)cc2)cc1` [(2E)-N-{4-[(4-methanesulfonylbenzene)sulfonyl]phenyl}-3-(pyridin-3-yl)prop-2-enamide] the same measures were 11.4 nM and 100 to 1000 nM.
For `O=C(/C=C/c1cccnc1)Nc1ccc(S(=O)(=O)c2cccc3c2Oc2ccccc2S3)cc1` [(2E)-N-[4-(phenoxathiine-4-sulfonyl)phenyl]-3-(pyridin-3-yl)prop-2-enamide], in that order: 7.2 nM and 50.1 nM.
As for `CCS(=O)(=O)c1cccc(S(=O)(=O)c2ccc(NC(=O)/C=C/c3cccnc3)cc2)c1` [(2E)-N-(4-{[3-(ethanesulfonyl)benzene]sulfonyl}phenyl)-3-(pyridin-3-yl)prop-2-enamide], the concentration for half-maximal inhibition (IC50) in test [1] was determined as 17.3 nM; in test [2] (setting [3]), 70.4 nM.
For the compound `CCOc1ccc(S(=O)(=O)c2ccc(NC(=O)/C=C/c3cccnc3)cc2)cc1` [(2E)-N-{4-[(4-ethoxybenzene)sulfonyl]phenyl}-3-(pyridin-3-yl)prop-2-enamide], the results for the concentration for half-maximal inhibition (IC50) in test [1] and in test [2] (setting [3]) were 27.4 nM and 100 to 1000 nM, respectively.
